{
  "source": "paper PMC9029618",
  "about": "“Attenuation of Scopolamine-Induced Amnesia via Cholinergic Modulation in Mice by Synthetic Curcumin Analogs” (Molecules, 2022)",
  "key": {"AChE": {"biological_target": "T1, AChE (Electrophorus electricus, UniProt O42275)", "T1 construct": "The enzymes AChE and BuChE were obtained from electric eel and equine serum, respectively; from tissue; host or cells: electric eel", "T1 sequence (O42275 24-633)": "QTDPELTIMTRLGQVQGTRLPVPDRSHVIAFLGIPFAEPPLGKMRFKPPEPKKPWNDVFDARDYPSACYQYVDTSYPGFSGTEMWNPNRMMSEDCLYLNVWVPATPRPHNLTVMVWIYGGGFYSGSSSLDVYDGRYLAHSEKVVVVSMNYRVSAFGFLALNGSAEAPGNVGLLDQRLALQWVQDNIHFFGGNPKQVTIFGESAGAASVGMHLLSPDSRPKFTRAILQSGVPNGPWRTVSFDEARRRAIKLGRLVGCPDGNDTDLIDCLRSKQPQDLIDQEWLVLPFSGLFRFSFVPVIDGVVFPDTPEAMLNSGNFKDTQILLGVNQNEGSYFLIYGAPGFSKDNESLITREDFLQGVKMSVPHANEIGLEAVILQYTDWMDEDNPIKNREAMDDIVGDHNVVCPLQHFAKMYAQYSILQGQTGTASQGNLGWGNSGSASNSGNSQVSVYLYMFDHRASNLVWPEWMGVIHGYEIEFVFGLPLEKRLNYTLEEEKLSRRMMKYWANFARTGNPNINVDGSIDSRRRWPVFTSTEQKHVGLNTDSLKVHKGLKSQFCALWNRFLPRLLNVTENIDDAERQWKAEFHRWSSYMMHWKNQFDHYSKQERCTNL", "experiment": "biochemical", "conditions": "AChE from electric eel, Ellman's method, n = 3; read-out: AChEI (IC50 (nM))", "procedure": "(§1) The in vitro cholinesterase assay of the synthesized curcumin analogs were carried out according to the Ellman’s method with slight modification. The enzymes AChE and BuChE were obtained from electric eel and equine serum, respectively. […] The final concentrations of AChE 0.03 U/mL and 0.01 U/mL of BuChE were achieved. […] The experiment was started by adding 5 µL enzyme solutions to cuvette, then 205 µL test sample and 5 µL DTNB reagents were added. Substrate solution (5 µL) was added, and the solution mixture was kept in a water bath for 15 min at 30 °C."}, "BuChE": {"biological_target": "T2, BuChE (Equus caballus, UniProt P81908)", "T2 construct": "The enzymes AChE and BuChE were obtained from electric eel and equine serum, respectively; from tissue; host or cells: equine serum", "T2 sequence (P81908 whole entry)": "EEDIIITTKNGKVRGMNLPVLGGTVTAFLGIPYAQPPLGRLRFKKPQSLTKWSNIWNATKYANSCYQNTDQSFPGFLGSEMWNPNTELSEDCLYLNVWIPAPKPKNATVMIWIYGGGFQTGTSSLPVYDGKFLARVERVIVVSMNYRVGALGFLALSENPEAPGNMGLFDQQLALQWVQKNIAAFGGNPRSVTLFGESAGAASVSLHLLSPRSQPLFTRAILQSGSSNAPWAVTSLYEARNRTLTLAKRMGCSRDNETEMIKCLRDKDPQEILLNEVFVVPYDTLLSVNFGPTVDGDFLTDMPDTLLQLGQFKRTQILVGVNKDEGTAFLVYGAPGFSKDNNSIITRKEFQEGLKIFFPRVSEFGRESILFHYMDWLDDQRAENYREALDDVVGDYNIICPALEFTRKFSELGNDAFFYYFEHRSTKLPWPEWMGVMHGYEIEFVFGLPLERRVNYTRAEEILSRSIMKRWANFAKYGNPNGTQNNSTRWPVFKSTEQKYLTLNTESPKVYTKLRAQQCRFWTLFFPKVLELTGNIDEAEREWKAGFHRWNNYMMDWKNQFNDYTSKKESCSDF", "experiment": "biochemical", "conditions": "BuChE from equine serum, Ellman's method, n = 3; read-out: BuChEI (IC50 (nM))", "procedure": "as §1"}, "[1]": {"tested_on": "scopolamine-induced amnesic mice", "experiment": "Elevated plus maze (EPM), scopolamine-induced amnesia", "type": "in vivo", "conditions": "scopolamine 1 mg/kg i.p.", "from_the_text": "Elevated plus maze paradigm is an important behavioral model for evaluation of anti-amnesic potentials in mice. This apparatus comprised of two open and two closed arms with dimensions of 16 cm × 5 cm × 12 cm and elevated 25 cm from the floor on a wooden stand. The EPM was designed in plus shape from two acrylic sheets having a central platform with dimensions of 5 cm × 5 cm. Initially, mice were placed in one of the open arms in such a way that it was directed away from the central platform. Then TLT was recorded after the mice moved to the closed arm, with their four legs from the open arm and then the mice were returned to their home cage. The time of exploration of the apparatus for each animal was 90 s. […] Reduction of TLT indicated memory-enhancing effect of the test samples. The inflexion ratio (IR) was calculated as: IR=L0−L1/L0 where L1 presents the initial transfer latency (s), and L0 is the retention transfer latency (s)."}, "[2]": {"tested_on": "scopolamine-induced amnesic mice", "experiment": "Novel object recognition test (NORT), scopolamine-induced amnesia", "type": "in vivo", "procedure": "In this study, the memory-enhancing potentials of synthesized compounds were determined using novel object recognition test mice model. Dimensions of the apparatus were 40 cm × 40 cm × 30 cm and designed from Plexiglass in a box shape. After acclimatization, the mice were habituated with the apparatus for 2–3 min one day before the test. Initially, in the sample phase, two identical objects were placed in the two corners of the apparatus and the mice were allowed to freely explore the apparatus. The objects in the apparatus were explored by each animal either by touching the objects or keeping their noses within 2 cm of them. […] Mice were allowed again to freely explore both the objects in a similar way as in sample phase, and the time spent by each animal exploring the novel and familiar object (F) was recorded.\nThe following formula was used for calculation of discrimination index. D1=N—F /N+F\nD1 = discrimination index; N = novel object; F = familiar object"}, "[3]": {"biological_target": "T3, AChE activity in the hippocampi of mice brains (Mus musculus, UniProt P21836)", "T3 construct": "from tissue; host or cells: mouse bilateral hippocampus homogenate, supernatant", "T3 sequence (P21836 32-614)": "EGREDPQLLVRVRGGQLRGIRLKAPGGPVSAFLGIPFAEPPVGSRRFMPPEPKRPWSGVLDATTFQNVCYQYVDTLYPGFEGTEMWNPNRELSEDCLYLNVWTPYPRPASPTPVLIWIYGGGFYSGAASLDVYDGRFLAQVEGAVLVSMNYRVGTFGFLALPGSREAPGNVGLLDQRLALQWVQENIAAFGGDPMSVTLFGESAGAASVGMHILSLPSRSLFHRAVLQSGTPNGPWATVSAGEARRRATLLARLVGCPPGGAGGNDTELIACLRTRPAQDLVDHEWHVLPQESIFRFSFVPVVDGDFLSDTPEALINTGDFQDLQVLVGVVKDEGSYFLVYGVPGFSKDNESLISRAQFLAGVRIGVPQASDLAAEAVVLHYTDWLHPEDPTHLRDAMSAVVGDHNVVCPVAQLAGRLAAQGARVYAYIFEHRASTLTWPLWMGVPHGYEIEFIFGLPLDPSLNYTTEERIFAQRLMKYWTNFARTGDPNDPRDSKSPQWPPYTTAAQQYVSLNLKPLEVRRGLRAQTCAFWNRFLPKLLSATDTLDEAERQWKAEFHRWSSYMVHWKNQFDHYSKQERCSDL", "type": "in vivo", "conditions": "ex vivo, vs scopolamine treated group, n = 6", "procedure": "(§2) After the behavioral study, the mice were sacrificed by decapitation, providing a quick and painless death by cervical dislocation. The isolated brain of each animal in chilled phosphate buffer saline was subjected into biomarker assays using AChE and BuChE enzymes.\nMice were sacrificed within 24 h of the behavior study; brains were dissected and stored at −80 °C. […] Supernatant was used for the measurement of cholinesterase (AChE and BuChE) activity.\nAcetylcholine/Acetyl cholinesterase assay Kit was used for the determination of AChE activity, according to the standard procedure. The assay was carried out using 96-well plate, and every reaction comprised of 100 µL sample, 200 µM Amplex Red reagent, 50 µM of acetylcholine, 1 U/mL horseradish peroxidase (HRP) and 0.1 U/mL choline oxidase in buffer solution. Incubation period for the reaction mixture was 20 min at room temperature in the dark. The fluorescence intensity at 560 nm excitation and 580 nm emission wavelength was measured."}, "[4]": {"biological_target": "T4, BuChE activity in the hippocampi of mice brains (Mus musculus, UniProt Q03311)", "T4 construct": "from tissue; host or cells: mouse bilateral hippocampus homogenate, supernatant", "T4 sequence (Q03311 30-603)": "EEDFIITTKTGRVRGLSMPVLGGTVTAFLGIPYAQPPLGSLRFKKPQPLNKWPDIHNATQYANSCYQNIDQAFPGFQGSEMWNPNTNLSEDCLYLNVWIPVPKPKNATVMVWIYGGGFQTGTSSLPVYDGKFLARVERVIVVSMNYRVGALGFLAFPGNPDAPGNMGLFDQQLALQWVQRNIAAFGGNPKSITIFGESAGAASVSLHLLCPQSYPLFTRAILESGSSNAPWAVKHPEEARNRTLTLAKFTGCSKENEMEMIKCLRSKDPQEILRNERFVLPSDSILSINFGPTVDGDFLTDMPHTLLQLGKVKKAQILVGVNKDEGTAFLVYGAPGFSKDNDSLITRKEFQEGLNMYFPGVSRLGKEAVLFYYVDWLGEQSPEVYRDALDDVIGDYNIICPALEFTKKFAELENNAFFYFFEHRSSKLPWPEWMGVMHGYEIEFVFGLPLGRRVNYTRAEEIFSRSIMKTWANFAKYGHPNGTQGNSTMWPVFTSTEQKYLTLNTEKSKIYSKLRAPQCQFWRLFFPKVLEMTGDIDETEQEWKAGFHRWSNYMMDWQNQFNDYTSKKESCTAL", "experiment": "Ex vivo BuChE activity in the brain hippocampus", "conditions": "vs scopolamine treated group, n = 6", "procedure": "as §2\nMice were sacrificed within 24 h of the behavior study; brains were dissected and stored at −80 °C. The bilateral hippocampus was homogenized before the assay into volumes of 0.01 M phosphate buffer (2.7 mM KCl, 137 mM NaCl, 2 mM KH2PO4, 10 mM Na2HPO4) and centrifuged at 4 °C for 30 min at 12,000× g. Supernatant was used for the measurement of cholinesterase (AChE and BuChE) activity.\nButyrylcholinesterase (BuChE) activity of the synthesized compounds were measured according to Ellman method with slight modification. BuSCh was hydrolyzed by BuChE and choline iodide produced, which reacted with DNTB, and then the production of TNB. The TNB was quantitated by calorimetry that indicated the BuChE activity. BuChE assay was accomplished in 96-well plate and every reaction mixture contained 40 µL sample, 80 µL DTNB (0.25 mg/mL) and 70 µL BuSCh (7.5 mM). The absorbance was determined at 37 °C after incubation for 60 min."}, "[5]": {"tested_on": "scopolamine-induced amnesic mice", "experiment": "Y-maze test, scopolamine-induced amnesia", "conditions": "scopolamine 1 mg/kg i.p.", "method": "A total of sixteen groups of mice, with six in each group, were used in the experiment. Vehicle treated group (Normal control group) were administered 10 mL/kg (p.o) of normal saline. […] Sample treatment groups were administered 7.5 mg/kg and 15 mg/kg (p.o) of synthesized compounds, respectively.\nThe dimensions of the arms were 15.5 cm high, 6 cm wide, 20 cm long and connected with each other with an angle of 120°. This test was conducted for a 5 min duration for each animal. The order and number of arm entries made by each animal after placing in one arm were recorded. Complete arm entry in any given arm was considered to be when the hind paws were completely inside, and the alternation was the consecutive arm entries into three different arms by each mouse. Ethanol 70% v/v solution was used to clean the Y-maze arena to avoid olfactory cues between each test. […] Mice were freely allowed to explore the objects when they were initially placed at the center of the apparatus. The formula was used to calculate the %SAP by recording the same arm returns (SAR), alternate arm returns (AAR) and the number of arm entries."}},
  "data": [
    {"smiles": "O=C(/C=C/c1ccc(Cl)cc1)CC(=O)/C=C/c1ccc(Cl)cc1", "note": "[Compound 1d, (1E,6E)-1,7-bis(4-chlorophenyl)hepta-1,6-diene-3,5-dione]", "values": [
      {"measurement": "IC50", "setting": "AChE", "result": 113, "unit": "nM"},
      {"measurement": "IC50", "setting": "BuChE", "result": 378, "unit": "nM"},
      {"measurement": "effect on TLT vs amnesic group", "setting": "[1]; 7.5 mg/kg p.o. 7 days", "result": "significantly reduced TLT"},
      {"measurement": "effect on TLT vs amnesic group", "setting": "[1]; 15 mg/kg p.o. 7 days", "result": "significantly reduced TLT"},
      {"measurement": "discrimination index (DI)", "setting": "[2]; long-term memory (after 24 h), 7.5 mg/kg", "result": 63.78, "unit": "%"},
      {"measurement": "discrimination index (DI)", "setting": "[2]; long-term memory (after 24 h), 15 mg/kg", "result": 64.61, "unit": "%"},
      {"measurement": "discrimination index (DI)", "setting": "[2]; short-term memory, 7.5 mg/kg", "result": 61.43, "unit": "%"},
      {"measurement": "discrimination index (DI)", "setting": "[2]; short-term memory, 15 mg/kg", "result": 62.03, "unit": "%"},
      {"measurement": "effect on scopolamine-increased AChE activity in hippocampus", "setting": "[3]", "result": "markedly reduced the increased activity of AChE"},
      {"measurement": "effect on scopolamine-increased BuChE activity in hippocampus", "setting": "[4]", "result": "decreased the increased BuChE activity"},
      {"measurement": "% spontaneous alternation performance (% SAP)", "setting": "[5]; 7.5 mg/kg p.o. 7 days", "result": "55.66 ± 2.82", "unit": "%"},
      {"measurement": "% spontaneous alternation performance (% SAP)", "setting": "[5]; 15 mg/kg p.o. 7 days", "result": "67.66 ± 2.84", "unit": "%"}
    ]}
  ]
}
